# Assay results published in patent publication US9695155B2, “Herbicidal substituted pyrimidinyloxy benzene compounds” (E. I. DU PONT DE NEMOURS AND COMPANY, priority 2013, dated 2017).
# What was measured:
# giant foxtail = experiment: Test C preemergence; assay type: in vivo, Setaria faberii; conditions: Setaria faberi, pre-emergence
# In short: (§1)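 Plants were kept under greenhouse conditions for 13–15 days following spray. Pre-emergent application went to soil (loam–sand), post-emergent to foliage at 1–4 leaves. Evaluation: visual, percent control against untreated checks.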
# kochia = experiment: Test A postemergence; assay type: in vivo, Kochia scoparia
# In short: (§2)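 Injury scores run from 0, no effect, to 100, complete control, judged by eye against untreated plants roughly 10 days after treatment. Chemicals carried a surfactant in a non-phytotoxic solvent and went onto loam–sand soil preemergence or onto one- to two-leaf seedlings postemergence.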
# ragweed [1] = experiment: Test A preemergence; assay type: in vivo, Ambrosia elatior; conditions: 0 to 100 scale where 0 is no effect and 100 is complete control
# In short: as §2
# pigweed = experiment: Test C preemergence; assay type: in vivo, Amaranthus retroflexus; conditions: Amaranthus retroflexus, pre-emergence, preemergence, read-out: Pigweed plant response rating
# In short: as §1
# waterhemp = experiment: Test C preemergence; assay type: in vivo, Amaranthus rudis; conditions: Amaranthus tuberculatus, pre-emergence, preemergence, read-out: Waterhemp plant response rating
# In short: as §1
# velvetleaf = experiment: Test C preemergence; assay type: in vivo, Abutilon theophrasti; conditions: Abutilon theophrasti, pre-emergence, preemergence, read-out: Velvetleaf plant response rating
# In short: as §1
# wheat, winter = experiment: Test C preemergence; assay type: in vivo, Triticum aestivum; conditions: Triticum aestivum, pre-emergence, preemergence, read-out: Wheat plant response rating
# In short: as §1
# large (Lg) crabgrass = experiment: Test C preemergence; assay type: in vivo, Digitaria sanguinalis; conditions: Digitaria sanguinalis, pre-emergence
# In short: as §1
# ragweed [2] = experiment: Test C preemergence; assay type: in vivo, Ambrosia elatior; conditions: Ambrosia artemisiifolia, pre-emergence, preemergence, read-out: Ragweed plant response rating
# In short: as §1
# blackgrass [3] = experiment: Test A postemergence; assay type: in vivo, Alopecurus myosuroides
# In short: as §2
# ragweed [4] = experiment: Test A postemergence; assay type: in vivo, Ambrosia elatior
# In short: as §2
# soybean = experiment: Test C preemergence; assay type: in vivo, Glycine max; conditions: Glycine max, pre-emergence, preemergence, read-out: Soybean plant response rating
# In short: as §1
# oilseed rape = experiment: Test C preemergence; assay type: in vivo, Brassica napus; conditions: Brassica napus, pre-emergence, preemergence, read-out: Oilseed Rape plant response rating
# In short: as §1
# yellow nutsedge = experiment: Test C preemergence; assay type: in vivo, Cyperus esculentus; conditions: Cyperus, pre-emergence, preemergence, scale 0 (no effect) to 100 (complete control), read-out: Nutsedge, Yellow plant response rating
# In short: as §1
# blackgrass [5] = experiment: Test C preemergence; assay type: in vivo, Alopecurus myosuroides; conditions: Alopecurus myosuroides, pre-emergence
# In short: as §1
# lambsquarters = experiment: Test C preemergence; assay type: in vivo, Chenopodium album; conditions: Chenopodium album, pre-emergence, preemergence, read-out: Lambsquarters plant response rating
# In short: as §1
# barnyardgrass = experiment: Test C preemergence; assay type: in vivo, Echinochloa crus-galli; conditions: Echinochloa crus-galli, pre-emergence
# In short: as §1
# galium = experiment: Test A postemergence; assay type: in vivo, Galium aparine
# In short: as §2
# [6] = 31 g ai/ha, 0 to 100 scale, 0 no effect, 100 complete control
# [7] = 125 g ai/ha, 0 to 100 scale where 0 is no effect and 100 is complete control
# [8] = 16 g ai/ha, scale 0 to 100 (0 no effect, 100 complete control)
# [9] = 62 g ai/ha, scale 0 (no effect) to 100 (complete control)
# [10] = 125 g ai/ha, scale 0 (no effect) to 100 (complete control)
compound,measurement,setting,value
"Fc1cccc(Oc2ncc(Cl)cn2)c1-n1cc(C(F)F)nn1 [Compound 141, 5-chloro-2-[2-[4-(difluoromethyl)-1H-1,2,3-triazol-1-yl]-3-fluorophenoxy]pyrimidine]",pest or weed control at 16 g/ha,"giant foxtail; 16 g ai/ha, preemergence, scale 0 to 100 (0 no effect, 100 complete control), read-out: Foxtail, Giant plant response rating",90%
same,pest or weed control at 62 g/ha,"giant foxtail; 62 g ai/ha, preemergence, scale 0 (no effect) to 100 (complete control), read-out: Foxtail, Giant plant response rating",100%
same,pest or weed control at 125 g/ha,"giant foxtail; 125 g ai/ha, preemergence, scale 0 (no effect) to 100 (complete control), read-out: Foxtail, Giant plant response rating",100%
same,pest or weed control at 31 g/ha,"giant foxtail; Preemergence, 31 g ai/ha, scale 0 to 100, 0 no effect, 100 complete control, read-out: Plant response rating, Foxtail, Giant",100%
same,"Plant response rating, Kochia",kochia; [6],100
same,Kochia plant response rating,kochia; [7],100
same,"Plant response rating, Ragweed","ragweed [1]; 31 g ai/ha, visual, approximately 10 days",90
same,"Plant response rating, Ragweed",ragweed [1]; 125 g ai/ha,100
same,pest or weed control at 16 g/ha,pigweed; [8],100%
same,pest or weed control at 62 g/ha,pigweed; [9],100%
same,pest or weed control at 125 g/ha,pigweed; [10],100%
same,pest or weed control at 16 g/ha,waterhemp; [8],100%
same,pest or weed control at 62 g/ha,waterhemp; [9],100%
same,pest or weed control at 125 g/ha,waterhemp; [10],100%
same,pest or weed control at 16 g/ha,velvetleaf; [8],100%
same,pest or weed control at 62 g/ha,velvetleaf; [9],100%
same,pest or weed control at 125 g/ha,velvetleaf; [10],100%
same,plant injury at 16 g/ha,"wheat, winter; [8]",0%
same,plant injury at 62 g/ha,"wheat, winter; [9]",40%
same,plant injury at 125 g/ha,"wheat, winter; [10]",60%
same,pest or weed control at 16 g/ha,"large (Lg) crabgrass; 16 g ai/ha, preemergence, scale 0 to 100 (0 no effect, 100 complete control), read-out: Crabgrass, Large plant response rating",100%
same,pest or weed control at 62 g/ha,"large (Lg) crabgrass; 62 g ai/ha, preemergence, scale 0 (no effect) to 100 (complete control), read-out: Crabgrass, Large plant response rating",100%
same,pest or weed control at 125 g/ha,"large (Lg) crabgrass; 125 g ai/ha, preemergence, scale 0 (no effect) to 100 (complete control), read-out: Crabgrass, Large plant response rating",100%
same,pest or weed control at 31 g/ha,"large (Lg) crabgrass; Preemergence, 31 g ai/ha, scale 0 to 100, 0 no effect, 100 complete control, read-out: Plant response rating, Crabgrass, Large",100%
same,pest or weed control at 16 g/ha,ragweed [2]; [8],85%
same,pest or weed control at 62 g/ha,ragweed [2]; [9],100%
same,pest or weed control at 125 g/ha,ragweed [2]; [10],100%
same,"Plant response rating, Blackgrass",blackgrass [3]; [6],90
same,Blackgrass plant response rating,blackgrass [3]; [7],100
same,"Plant response rating, Ragweed",ragweed [4]; [6],80
same,Ragweed plant response rating,ragweed [4]; [7],100
same,plant injury at 16 g/ha,soybean; [8],65%
same,plant injury at 62 g/ha,soybean; [9],90%
same,plant injury at 125 g/ha,soybean; [10],98%
same,plant injury at 16 g/ha,oilseed rape; [8],100%
same,plant injury at 62 g/ha,oilseed rape; [9],100%
same,plant injury at 125 g/ha,oilseed rape; [10],100%
same,pest or weed control at 62 g/ha,yellow nutsedge; 62 g ai/ha,70%
same,pest or weed control at 125 g/ha,yellow nutsedge; 125 g ai/ha,95%
same,pest or weed control at 16 g/ha,"blackgrass [5]; 16 g ai/ha, preemergence, scale 0 to 100 (0 no effect, 100 complete control), read-out: Blackgrass plant response rating",80%
same,pest or weed control at 62 g/ha,"blackgrass [5]; 62 g ai/ha, preemergence, scale 0 (no effect) to 100 (complete control), read-out: Blackgrass plant response rating",95%
same,pest or weed control at 125 g/ha,"blackgrass [5]; 125 g ai/ha, preemergence, scale 0 (no effect) to 100 (complete control), read-out: Blackgrass plant response rating",95%
same,pest or weed control at 31 g/ha,"blackgrass [5]; Preemergence, 31 g ai/ha, scale 0 to 100, 0 no effect, 100 complete control, read-out: Plant response rating, Blackgrass",95%
same,pest or weed control at 16 g/ha,lambsquarters; [8],85%
same,pest or weed control at 62 g/ha,lambsquarters; [9],100%
same,pest or weed control at 125 g/ha,lambsquarters; [10],100%
same,pest or weed control at 16 g/ha,"barnyardgrass; 16 g ai/ha, preemergence, scale 0 to 100 (0 no effect, 100 complete control), read-out: Barnyardgrass plant response rating",80%
same,pest or weed control at 62 g/ha,"barnyardgrass; 62 g ai/ha, preemergence, scale 0 (no effect) to 100 (complete control), read-out: Barnyardgrass plant response rating",100%
same,pest or weed control at 125 g/ha,"barnyardgrass; 125 g ai/ha, preemergence, scale 0 (no effect) to 100 (complete control), read-out: Barnyardgrass plant response rating",100%
same,pest or weed control at 31 g/ha,"barnyardgrass; Preemergence, 31 g ai/ha, scale 0 to 100, 0 no effect, 100 complete control, read-out: Plant response rating, Barnyardgrass",100%
same,"Plant response rating, Galium",galium; [6],100
same,Galium plant response rating,galium; [7],100
